Data from patent US9321743B2, “Compositions and methods of inhibiting N-acylethanolamine-hydrolyzing acid amidase” (The Regents of the University of California, priority 2007, dated 2016).

Legend:
spinal cord injury = spinal cord injury (SCI) model, extradural clip compression; assay type: in vivo, mouse; conditions: spinal cord tissue 24 hours after SCI, local administration after SCI
Procedure: In the spinal cord injury (SCI) model, extradural compression of a section of the spinal cord exposed via a four-level T5-T8 aminectomy, caused a substantial increase in iNOS expression in the inflammatory cells as well as in nuclei of […] in the white and gray matter of the spinal cord tissues collected from mice 24 hours after SCI. No iNOS staining was detected in the spinal cord obtained from sham mice. […] A typical experimental protocol is described below.
Mice were randomized into 4 groups (n=40 animals/group). Sham animals were subjected to the surgical procedure except that the aneurysm clip was not applied and treated locally at the spinal cord T5-T8 level with vehicle (saline) or 3 (30 μg/mouse) 1 h and 6 h after surgical procedure. […]
Immunohistochemical localization of PAR, nitrotyrosine, FAS-ligand, Bax, Bcl-2 and iNOS. Twenty-four hours after SCI, nitrotyrosine, a specific marker of nitrosative stress, was measured by immunohistochemical analysis in the spinal cord sections to determine the localization of “peroxynitrite formation” and/or other nitrogen derivatives produced during SCI. […] Specific labeling was detected with a biotin-conjugated goat anti-rabbit IgG and avidin-biotin peroxidase complex ([…]). […]

recombinant NAAA = recombinant NAAA (Rattus norvegicus (Rat), UniProt Q5KTC7); experiment: NAAA assay; assay type: biochemical; conditions: read-out: IC50 of NAAA inhibition
Sequence of recombinant NAAA (Q5KTC7 34-362): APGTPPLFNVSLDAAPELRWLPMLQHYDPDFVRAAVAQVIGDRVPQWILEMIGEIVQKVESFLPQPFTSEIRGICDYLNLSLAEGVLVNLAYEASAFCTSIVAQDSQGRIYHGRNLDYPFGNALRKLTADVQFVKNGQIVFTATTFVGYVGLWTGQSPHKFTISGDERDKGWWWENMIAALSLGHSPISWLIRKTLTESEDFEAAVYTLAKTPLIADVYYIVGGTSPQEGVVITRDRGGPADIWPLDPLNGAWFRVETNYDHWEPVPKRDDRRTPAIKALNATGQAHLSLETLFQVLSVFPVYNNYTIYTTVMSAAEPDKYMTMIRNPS
Procedure: Recombinant NAAA or native rat lung NAAA was incubated at 37° C. for 30 min in 0.2 ml of sodium hydrogen phosphate buffer (50 mM, pH 5.0) containing 0.1% Triton X-100, 3 mM dithiothreitol (DTT) and […] heptadecenoylethanolamide as substrate. The reaction was terminated by the addition of 0.2 ml cold methanol containing […] of heptadecanoic acid (HDA, NuChek Prep, Elysian, Minn.). Samples were analyzed by LC/MS (liquid chromatography/mass spectrometry). Heptadecanoic acid was eluted on an XDB Eclipse C18 column isocratically at 2.2 ml/min for 1 min with a solvent mixture of 95% methanol and 5% water, both containing 0.25% acetic acid and 5 mM ammonium acetate. The column temperature was 50° C. ESI was in the negative mode, capillary voltage was 4 kV, and fragmentor voltage was 100 V. N2 was used as drying gas at a flow rate of 13 liters/min and a temperature of 350° C. Nebulizer pressure was set at 60 psi. [M-H]-was monitored in SIM mode using heptadecanoic acid as internal standard. Calibration curves were generated using commercial heptadecenoic acid (Nu-Chek Prep, m/z=267).

[1] = tested on: carrageenan-induced inflammation; experiment: mouse carrageenan model (carrageenan-soaked polyethylene sponge implanted under the dorsal skin); assay type: in vivo
Source text: The contribution of endogenous PEA to inflammatory processes remains largely undefined. […] The inventors have previously shown that the proinflammatory phorbol ester, 12-O-tetradecanoylphorbol-13-acetate (TPA), decreases dermal PEA levels following skin inflammation. These findings raised the possibility that reduced PEA levels during inflammation may allow for the progression of the inflammatory process. To further explore this idea, the inventors evaluated the effects of carrageenan-induced inflammation on PEA levels in the mouse. Polyethylene sponges injected with vehicle (10% DMSO in saline) or carrageenan (1%) were surgically implanted under the dorsal skin of mice. After 3 days, the mice were sacrificed and the sponges were removed and analyzed for inflammatory cell infiltration and cellular PEA content. In carrageenan-treated animals the number of infiltrating cells (primarily neutrophils) increased by approximately 3-fold as can be taken from FIG. 2. Here, surgical implantation of vehicle (v) or carrageenan (c) soaked sponges under the dorsal skin of Swiss mice for 3 days (A) increased the number of infiltrating neutrophils and (B) decreased the levels of endogenous cellular PEA. (C) Time course of the effects of vehicle (open symbols) or carrageen (closed symbols) on PEA levels **P<0.01 or ***P<0.001 vs. V, t-test or ANOVA, followed by Dunnett's post-hoc as appropriate (n=6).
As a first step in determining the role of endogenous PEA in inflammation, the inventors examined the effects of local application of PEA on inflammatory responses. Polyethylene sponges injected with vehicle or carrageenan (1%) and either vehicle (10% DMSO in saline) or various doses of PEA (0.1-50 μg) were surgically implanted under the dorsal skin of mice. After 3 days, the mice were killed and the sponges were removed and analyzed for cell infiltration. […] Here panels (A-B) depict the effect of vehicle (open bars), carrageenan (filled bars) or PEA (0.1-50 μg) in Swiss mice, black bars; PEA (50 μg in PPAR-α−/− mice), scored as the number of infiltrating inflammatory cells into a polyethylene sponge (size) injected with vehicle, carrageenan (1%) or PEA, implanted under the dorsal skin of (A) Swiss mice or (B) wildtype C57BL6 mice (+/+) or PPAR-α/− mice for 3 days. **P<0.01 or ***P<0.001 vs. V, ## P<0.01 vs. carrageenan control. ANOVA, followed by Tukey's or Dunnett's post-hoc as appropriate (n=6). Thus, it should be appreciated that peripheral inflammation is associated with decreased PEA synthesis in infiltrating cells, and that restoring PEA levels by exogenous PEA administration reduces inflammatory responses.
Polyethylene sponges (1 cm^3) were injected with either vehicle (100 μl of water:DMSO (9:1), V, open bars), carrageenan (1%, filled bars), URB597 (30 μg), and URB783 (30 μg) as indicated. **P<0.01 or ***P<0.001 vs. V, ## P<0.01 vs. carrageenan control. ANOVA, followed by Tukey's or Dunnett's post-hoc as appropriate (n=5-7).

[2] = 30 μg in sponge, 3 days, Swiss mice

In the case of `O=C(CCc1ccccc1)N[C@H]1COC1=O` [URB783, (S)—N-(2-oxooxetan-3-yl)-3-phenylpropionamide], the “expression of iNOS” value (spinal cord injury) is reported as “significant reduction”, the “other markers of inflammation and cell apoptosis (PAR, nitrotyrosine, Fas-ligand, Bax, Bcl-2, TUNEL)” value (spinal cord injury) is reported as “significant reduction” and the IC50 (recombinant NAAA) is reported as 420 ± 20 nM. The “endogenous PEA levels” value [1, 2] was “restored PEA to basal levels”, the “number of infiltrating cells” value [1, 2] was “significantly reduced” and the “anti-inflammatory effects in PPAR-α null mice” value ([1]; PPAR-α null mice) was “absent”. For the same molecule, the exudates volume ([1]; in sponge, data not shown) was “significantly reduced”.
For `NC(=O)c1cccc(-c2cccc(OC(=O)NC3CCCCC3)c2)c1` [URB597, reference compound], the anti-inflammatory effect ([1]; 30 μg in sponge, 3 days) was “no anti-inflammatory effect”.
For `O=C(N[C@H]1COC1=O)c1ccc(-c2ccccc2)cc1` [URB894, (S)—N-(2-oxooxetan-3-yl)biphenyl-4-carboxamide], the IC50 (recombinant NAAA) was 115 ± 13 nM.
For `CCCCCCCCCCCCCCCC(=O)NCCO` [PEA, N-palmitoylethanolamine, reference compound], the “number of infiltrating cells and edema in PPAR-α-null animals” value ([1]; PEA 50 μg, PPAR-α-null mice) was “had no effect”, the “number of infiltrating cells” value ([1]; PEA 0.1-50 μg in sponge, 3 days, wild-type mice) was “dose-dependently reduced” and the edema ([1]; PEA in sponge, wild-type mice, data not shown) was “dose-dependently reduced”.
